What is called Ki is the equilibrium dissociation constant of an inhibitor or competing ligand from its target.

This passage reports Ki results from patent US12459974B2, “Bicyclic peptide ligands specific for Nectin-4” (priority 2018, dated 2025).

*1 amine or outer side, *2 acyl side, *3 side chain or, on linkers, in order; H or OH if unused. Where a SMILES comes first, the peptide text is derived from it. Bridges are numbered along the chain shown (N, C = ends). TATA = O=C(CC[*:1])N1CN(C(=O)CC[*:2])CN(C(=O)CC[*:3])C1

The target of the first assay is T1, human Nectin-4 (Homo sapiens, UniProt Q96NY8).
T1 sequence (Q96NY8 32-510): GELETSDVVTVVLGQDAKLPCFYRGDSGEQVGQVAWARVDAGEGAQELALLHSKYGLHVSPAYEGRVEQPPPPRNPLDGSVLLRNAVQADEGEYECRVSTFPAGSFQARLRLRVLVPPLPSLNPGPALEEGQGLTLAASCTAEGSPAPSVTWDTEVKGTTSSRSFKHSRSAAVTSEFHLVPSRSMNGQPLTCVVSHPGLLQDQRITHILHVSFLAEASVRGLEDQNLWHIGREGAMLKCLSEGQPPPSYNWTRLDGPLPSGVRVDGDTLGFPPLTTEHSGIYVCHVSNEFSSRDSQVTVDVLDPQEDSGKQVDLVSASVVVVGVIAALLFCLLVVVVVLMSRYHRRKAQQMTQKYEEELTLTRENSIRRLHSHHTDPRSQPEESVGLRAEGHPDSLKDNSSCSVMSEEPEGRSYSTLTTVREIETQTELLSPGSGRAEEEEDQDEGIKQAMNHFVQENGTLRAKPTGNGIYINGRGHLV
Briefly: Nectin-4 competition binding assay (fluorescence polarisation).
Conditions: not given
The protocol:
Peptides were diluted to an appropriate concentration in assay buffer as described in the direct binding assay with a maximum of 5% DMSO, then serially diluted 1 in 2. Five μL of diluted peptide was added to the plate followed by 10 μL of human Nectin-4, then 10 μL fluorescent peptide added. Measurements were conducted as for the direct binding assay, however the gain was determined prior to the first measurement. Data analysis was in Systat Sigmaplot version 12.0 where the mP values were fit to a user defined cubic equation to generate a Ki value: • f=ymin+(ymax−ymin)/Lig*((Lig*((2*((Klig+Kcomp+Lig+Comp-Prot*c)^2-3*(Kcomp*(Lig-Prot*c)+Klig*(Comp-Prot*c)+Klig*Kcomp))^0.5*COS(ARCCOS((−2*(Klig+Kcomp+Lig+Comp-Prot*c)^3+9*(Klig+Kcomp+Lig+Comp-Prot*c)*(Kcomp*(Lig-Prot*c)+Klig*(Comp-Prot*c)+Klig*Kcomp)−27*(−1*Klig*Kcomp*Prot*c)/(2*((((Klig+Kcomp+Lig+Comp-Prot*c)^2−3*(Kcomp*(Lig-Prot*c)+Klig*(Comp-Prot*c)+Klig*Kcomp))^3)^0.5)))/3))−(Klig+Kcomp+Lig+Comp-Prot*c)))/((3*Klig)+((2*((Klig+Kcomp+Lig+Comp-Prot*c)^2−3*(Kcomp*(Lig-Prot*c)+Klig*(Comp-Prot*c)+Klig*Kcomp))^0.5*COS (ARCCOS ((−2*(Klig+Kcomp+Lig+Comp-Prot*c)^3+9*(Klig+Kcomp+Lig+Comp-Prot*c)*(Kcomp*(Lig-Prot*c)+Klig*(Comp-Prot*c)+Klig*Kcomp)-27*(−1*Klig*Kcomp*Prot*c))/(2*((((Klig+Kcomp+Lig+Comp-Prot*c)^2-3*(Kcomp*(Lig-Prot*c)+Klig*(Comp-Prot+c)+Klig*Kcomp))^3)^0.5))/3)−(Klig+Kcomp+Lig+Comp-Prot*c)))).
“Lig”, “KLig” and “Prot” were all defined values relating to: fluorescent peptide concentration, the Kd of the fluorescent peptide and Nectin concentration respectively.
Turning to `CC[C@H](C)[C@@H]1NC(=O)[C@@H]2CCCN2C(=O)[C@H](Cc2c[nH]c3ccccc23)NC(=O)[C@H](CO)NC(=O)[C@H](Cc2c[nH]c3ccccc23)NC(=O)CNC(=O)[C@H](CCCNC(=N)N)NC(=O)[C@H](CCSC)NC(=O)[C@@H]2CSCCC(=O)N3CN(CN(C3)C(=O)CCSC[C@H](NC(=O)[C@H](C)NC(=O)[C@@H](NC(=O)[C@@H](N)CC(=O)O)[C@@H](C)O)C(=O)N3CCC[C@H]3C(=O)N[C@@H](Cc3ccccc3)C(=O)NCC(=O)N2)C(=O)CCSC[C@@H](C(=O)N[C@@H](C)C(N)=O)NC(=O)[C@H](Cc2c[nH]c3ccccc23)NC1=O` [BCY3388, DTA-(SEQ ID NO: 46)-A] (H-DTACPFGCMRGWSWPIWCA-NH2; linker 4-8-18 via TATA), the Ki turned out to be 129 nM.

The same assay, now with this note: competition with fluorescent peptide SEQ ID NO: 217; read-out: Ki.
Regarding `CC[C@H](C)[C@@H]1NC(=O)[C@@H]2CCCN2C(=O)[C@H](Cc2c[nH]c3ccccc23)NC(=O)[C@H](CO)NC(=O)[C@H](Cc2c[nH]c3ccccc23)NC(=O)[C@H](CC(N)=O)NC(=O)[C@H](CCCNC(=N)N)NC(=O)[C@H](CCSC)NC(=O)[C@@H]2CSCCC(=O)N3CN(CN(C3)C(=O)CCSC[C@H](NC(=O)[C@H](C)N)C(=O)N3CCC[C@H]3C(=O)N[C@@H](Cc3ccccc3)C(=O)NCC(=O)N2)C(=O)CCSC[C@@H](C(=O)N[C@@H](C)C(N)=O)NC(=O)[C@H](Cc2c[nH]c3ccccc23)NC1=O` [BCY429, A-(SEQ ID NO: 2)-A] (H-ACPFGCMRNWSWPIWCA-NH2; linker 2-6-16 via TATA; N-terminus and C-terminus assumed), the Ki turned out to be 42.6 nM.
The same measure, in the same setting: next, `CC[C@H](C)[C@@H]1NC(=O)[C@H](CCCNC(=N)N)NC(=O)CNC(=O)[C@@H]2CSCCC(=O)N3CN(CN(C3)C(=O)CCSC[C@@H](C(=O)N[C@@H](C)C(N)=O)NC1=O)C(=O)CCSC[C@H](NC(=O)[C@H](C)N)C(=O)N[C@@H](Cc1c[nH]c3ccccc13)C(=O)N1CCC[C@H]1C(=O)N[C@@H](CC(C)C)C(=O)N[C@@H](CC(=O)O)C(=O)N1CCC[C@H]1C(=O)N[C@@H](Cc1ccc(O)cc1)C(=O)N[C@@H](Cc1c[nH]c3ccccc13)C(=O)N2` [BCY430, A-(SEQ ID NO: 43)-A] (H-ACWPLDPYWCGRICA-NH2; linker 2-10-14 via TATA; N-terminus and C-terminus assumed): 310 nM.
Still for that read-out and setting: next, `CC[C@H](C)[C@@H]1NC(=O)[C@H](CCCNC(=N)N)NC(=O)CNC(=O)[C@@H]2CSCCC(=O)N3CN(CN(C3)C(=O)CCSC[C@@H](C(=O)N[C@@H](C)C(N)=O)NC1=O)C(=O)CCSC[C@H](NC(=O)[C@H](Cc1c[nH]c3ccccc13)NC(=O)[C@H](CC(=O)O)NC(=O)[C@@H](N)CC(=O)O)C(=O)N[C@@H](C)C(=O)N1CCC[C@H]1C(=O)N[C@@H](CC(C)C)C(=O)N[C@@H](CC(=O)O)C(=O)N[C@@H](CC(=O)O)C(=O)N[C@@H](Cc1ccc(O)cc1)C(=O)N[C@@H](Cc1c[nH]c3ccccc13)C(=O)N2` [BCY433, DDW-(SEQ ID NO: 32)-A] (H-DDWCAPLDDYWCGRICA-NH2; linker 4-12-16 via TATA; N-terminus and C-terminus assumed): 69.4 nM; `CC[C@H](C)[C@@H]1NC(=O)[C@@H]2CCCN2C(=O)[C@H](Cc2c[nH]c3ccccc23)NC(=O)[C@H](CO)NC(=O)[C@H](Cc2c[nH]c3ccccc23)NC(=O)[C@H]([C@@H](C)O)NC(=O)[C@H](CCC(=O)O)NC(=O)[C@H](CCSC)NC(=O)[C@@H]2CSCCC(=O)N3CN(CN(C3)C(=O)CCSC[C@H](NC(=O)[C@H](C)NC(=O)[C@H](CC(=O)O)NC(=O)[C@@H](N)CC(=O)O)C(=O)N3CCC[C@H]3C(=O)N[C@@H](Cc3ccccc3)C(=O)NCC(=O)N2)C(=O)CCSC[C@@H](C(=O)N[C@@H](C)C(N)=O)NC(=O)[C@H](Cc2c[nH]c3ccccc23)NC1=O` [BCY3386, DDA-(SEQ ID NO: 45)-A] (H-DDACPFGCMETWSWPIWCA-NH2; linker 4-8-18 via TATA; N-terminus and C-terminus assumed): 80.2 nM; `CC[C@H](C)[C@@H]1NC(=O)[C@@H]2CCCN2C(=O)[C@H](Cc2c[nH]c3ccccc23)NC(=O)[C@H](CO)NC(=O)[C@H](Cc2c[nH]c3ccccc23)NC(=O)[C@H](CC(=O)O)NC(=O)[C@H](CCCCN)NC(=O)[C@H](CCSC)NC(=O)[C@@H]2CSCCC(=O)N3CN(CN(C3)C(=O)CCSC[C@H](NC(=O)[C@H](CC(N)=O)NC(=O)[C@H](CC(=O)O)NC(=O)[C@@H](N)CO)C(=O)N3CCC[C@H]3C(=O)N[C@@H](Cc3ccccc3)C(=O)NCC(=O)N2)C(=O)CCSC[C@@H](C(=O)N[C@@H](C)C(N)=O)NC(=O)[C@H](Cc2c[nH]c3ccccc23)NC1=O` [BCY3387, SDN-(SEQ ID NO: 15)-A] (H-SDNCPFGCMKDWSWPIWCA-NH2; linker 4-8-18 via TATA; N-terminus and C-terminus assumed): 234 nM.
As to `CC[C@H](C)[C@@H]1NC(=O)[C@@H]2CCCN2C(=O)[C@H](Cc2c[nH]c3ccccc23)NC(=O)[C@H](CO)NC(=O)[C@H](Cc2c[nH]c3ccccc23)NC(=O)CNC(=O)[C@H](CO)NC(=O)[C@H](CCSC)NC(=O)[C@@H]2CSCCC(=O)N3CN(CN(C3)C(=O)CCSC[C@H](NC(=O)[C@H](CCC(=O)O)NC(=O)[C@H](CO)NC(=O)[C@@H](N)CC(=O)O)C(=O)N3CCC[C@H]3C(=O)N[C@@H](Cc3ccccc3)C(=O)NCC(=O)N2)C(=O)CCSC[C@@H](C(=O)N[C@@H](C)C(N)=O)NC(=O)[C@H](Cc2c[nH]c3ccccc23)NC1=O` [BCY3389, DSE-(SEQ ID NO: 47)-A] (H-DSECPFGCMSGWSWPIWCA-NH2; linker 4-8-18 via TATA; N-terminus and C-terminus assumed), the Ki worked out at 99.8 nM.
The same measure, in the same setting: in the case of `CC[C@H](C)[C@@H]1NC(=O)[C@@H]2CCCN2C(=O)[C@H](Cc2c[nH]c3ccccc23)NC(=O)[C@H](CO)NC(=O)[C@H](Cc2c[nH]c3ccccc23)NC(=O)CNC(=O)[C@H](CCC(=O)O)NC(=O)[C@H](CCSC)NC(=O)[C@@H]2CSCCC(=O)N3CN(CN(C3)C(=O)CCSC[C@H](NC(=O)[C@H](C)NC(=O)[C@H](CC(=O)O)NC(=O)[C@@H](N)Cc3c[nH]cn3)C(=O)N3CCC[C@H]3C(=O)N[C@@H](Cc3ccccc3)C(=O)NCC(=O)N2)C(=O)CCSC[C@@H](C(=O)N[C@@H](C)C(N)=O)NC(=O)[C@H](Cc2c[nH]c3ccccc23)NC1=O` [BCY3390, HDA-(SEQ ID NO: 48)-A] (H-HDACPFGCMEGWSWPIWCA-NH2; linker 4-8-18 via TATA; N-terminus and C-terminus assumed) it was 302 nM.
`CC[C@H](C)[C@@H]1NC(=O)[C@@H]2CCCN2C(=O)[C@H](Cc2c[nH]c3ccccc23)NC(=O)[C@H](CO)NC(=O)[C@H](Cc2c[nH]c3ccccc23)NC(=O)[C@H](CC(=O)O)NC(=O)[C@H](CCC(=O)O)NC(=O)[C@H](CCSC)NC(=O)[C@@H]2CSCCC(=O)N3CN(CN(C3)C(=O)CCSC[C@H](NC(=O)[C@@H](NC(=O)[C@H](CC(=O)O)NC(=O)[C@@H](N)CCSC)[C@@H](C)O)C(=O)N3CCC[C@H]3C(=O)N[C@@H](Cc3ccccc3)C(=O)NCC(=O)N2)C(=O)CCSC[C@@H](C(=O)N[C@@H](C)C(N)=O)NC(=O)[C@H](Cc2c[nH]c3ccccc23)NC1=O` [BCY3391, MDT-(SEQ ID NO: 49)-A] (H-MDTCPFGCMEDWSWPIWCA-NH2; linker 4-8-18 via TATA; N-terminus and C-terminus assumed): the Ki amounted to 198 nM.
Same read-out and setting: next, `CC[C@H](C)[C@@H]1NC(=O)[C@@H]2CCCN2C(=O)[C@H](Cc2c[nH]c3ccccc23)NC(=O)[C@H](CO)NC(=O)[C@H](Cc2c[nH]c3ccccc23)NC(=O)CNC(=O)[C@@H]2CCCN2C(=O)[C@H](CCSC)NC(=O)[C@@H]2CSCCC(=O)N3CN(CN(C3)C(=O)CCSC[C@H](NC(=O)CNC(=O)[C@@H]3CCCN3C(=O)[C@@H](N)CC(=O)O)C(=O)N3CCC[C@H]3C(=O)N[C@@H](Cc3ccccc3)C(=O)NCC(=O)N2)C(=O)CCSC[C@@H](C(=O)N[C@@H](C)C(N)=O)NC(=O)[C@H](Cc2c[nH]c3ccccc23)NC1=O` [BCY3392, DPG-(SEQ ID NO: 50)-A] (H-DPGCPFGCMPGWSWPIWCA-NH2; linker 4-8-18 via TATA; N-terminus and C-terminus assumed): 36.3 nM.
